We go through 29 compounds from patent publication US20080039455A1, “PYRAZOLOPYRIMIDINES AND SALTS THEREOF, PHARMACEUTICAL COMPOSITIONS COMPRISING SAME, METHODS OF PREPARING SAME AND USES OF SAME” (priority 2006, published 2008).

What is called IC50 is the concentration needed to halve the response being measured.

Counter-ions that a name gives are not always drawn.

The experiment has as its target T1, human recombinant ALK1 (GST fused to ALK1 intracellular domain [His142-Gln503]) (Homo sapiens, UniProt P37023).
T1 construct: GST fused to ALK1 intracellular domain [His142-Gln503]; made in house
T1 sequence (P37023 142-503): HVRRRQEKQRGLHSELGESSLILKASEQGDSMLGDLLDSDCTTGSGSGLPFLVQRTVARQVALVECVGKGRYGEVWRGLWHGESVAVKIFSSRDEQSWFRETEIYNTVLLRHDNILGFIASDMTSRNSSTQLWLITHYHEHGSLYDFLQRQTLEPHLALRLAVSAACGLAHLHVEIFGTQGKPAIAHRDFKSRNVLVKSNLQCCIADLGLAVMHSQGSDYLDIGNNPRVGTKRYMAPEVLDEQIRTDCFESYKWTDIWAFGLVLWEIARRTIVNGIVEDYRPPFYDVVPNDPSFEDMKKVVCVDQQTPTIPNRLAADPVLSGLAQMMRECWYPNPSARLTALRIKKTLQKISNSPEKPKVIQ
As to the kind of experiment: ALK1-Kinase Flashplate-Assay. It counts as biochemical. As to conditions: 0.5 μM ATP, biotinylated α-casein substrate; read-out: Assay 1 (ALK1-Kinase Flashplate-Assay IC50 class). Summed up: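 Radiometric Flashplate assay at 20 °C: GST-ALK1 intracellular domain (5 ng/well) with 1 μM biotinylated bovine α-casein, 0.5 μM ATP plus [γ-33P]ATP in Tris pH 8.0, 1 mM MnCl2, 1% or 5% DMSO, 60 min. Normalised to no-inhibitor (0%) and 10 mM EDTA (100%); IC50 by 4-parameter fit.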
`Cc1csc(-c2cnn3ccc(NCc4cccnc4)nc23)c1` [Example 172, [3-(4-Methyl-thiophen-2-yl)-pyrazolo[1,5-a]pyrimidin-5-yl]-pyridin-3-ylmethyl-amine]: the IC50 fell in the range of 1 to 10 µM.
On to `c1cncc(CNc2ccn3ncc(-c4ccc5c(c4)OCO5)c3n2)c1` [Example 290, (3-Benzo[1,3]dioxol-5-yl-pyrazolo[1,5-a]pyrimidin-5-yl)-pyridin-3-ylmethyl-amine], for which the IC50 fell in the range of 1 to 10 µM.
The result for `COc1cccc(-c2cnn3ccc(Nc4ccc(N5CCOCC5)cc4)nc23)c1` [Example 233, [3-(3-Methoxy-phenyl)-pyrazolo[1,5-a]pyrimidin-5-yl]-(4-morpholin-4-yl-phenyl)-amine] reads 1 to 10 µM; that for `OCCNc1ccn2ncc(-c3ccc4c(c3)OCO4)c2n1` [Example 70, 2-(3-Benzo[1,3]dioxol-5-yl-pyrazolo[1,5-a]pyrimidin-5-ylamino)-ethanol], 1 to 10 µM.
On to `COc1ccc(-c2cnn3ccc(Nc4ccc(N5CCOCC5)cc4)nc23)cc1` [Example 173, [3-(4-Methoxy-phenyl)-pyrazolo[1,5-a]pyrimidin-5-yl]-(4-morpholin-4-yl-phenyl)-amine], for which the IC50 was 1 to 10 µM.
Consider `CC(=O)c1cccc(-c2cnn3ccc(Nc4ccc(NS(=O)(=O)c5ccc(C)cc5)cc4)nc23)c1` [Example 201, N-{4-[3-(3-Acetyl-phenyl)-pyrazolo[1,5-a]pyrimidin-5-ylamino]-phenyl}-4-methyl-benzenesulfonamide], for which the IC50 lay in the range of 1 to 10 µM.
The result for `COc1ccc(Nc2ccn3ncc(-c4ccc(O)cc4)c3n2)cn1` [Example 13, 4-[5-(6-Methoxy-pyridin-3-ylamino)-pyrazolo[1,5-a]pyrimidin-3-yl]-phenol] reads 1 to 10 µM; that for `CC(=O)Nc1cccc(-c2cnn3ccc(Nc4ccc5[nH]ccc5c4)nc23)c1` [Example 19, N-{3-[5-(1H-Indol-5-ylamino)-pyrazolo[1,5-a]pyrimidin-3-yl]-phenyl}-acetamide], less than 1 µM.
The result for `Oc1ccc(Nc2ccn3ncc(-c4ccc(O)cc4)c3n2)cc1` [Example 49, 4-[5-[(4-hydroxyphenyl)amino]pyrazolo[1,5-a]pyrimidin-3-yl]-phenol] reads less than 1 µM.
Take `Cc1ccc(S(=O)(=O)Nc2ccc(Nc3ccn4ncc(-c5ccncc5)c4n3)cc2)cc1` [Example 51, 4-Methyl-N-[4-(3-pyridin-4-yl-pyrazolo[1,5-a]pyrimidin-5-ylamino)-phenyl]-benzenesulfonamide]: the IC50 is less than 1 µM.
With `Cn1cc(-c2cnn3ccc(NC4CCC(O)CC4)nc23)cn1` (centres unmarked) [Example 221, 4-[3-(1-Methyl-1H-pyrazol-4-yl)-pyrazolo[1,5-a]pyrimidin-5-ylamino]-cyclohexanol] the figure was 1 to 10 µM; with `Cn1cc(-c2cnn3ccc(Nc4ccc(N5CCOCC5)cc4)nc23)cn1` [Example 235, [3-(1-Methyl-1H-pyrazol-4-yl)-pyrazolo[1,5-a]pyrimidin-5-yl]-(4-morpholin-4-yl-phenyl)-amine], 1 to 10 µM.
With `COc1ccc(Nc2ccn3ncc(-c4cccc(C(=O)NCCO)c4)c3n2)cn1` [Example 92, N-(2-Hydroxy-ethyl)-3-[5-(6-methoxy-pyridin-3-ylamino)-pyrazolo[1,5-a]pyrimidin-3-yl]-benzamide], the IC50 lay in the range of 1 to 10 µM.
With `Oc1ccc(-c2cnn3ccc(NCc4cccnc4)nc23)cc1` [Example 293, 4-{5-[(Pyridin-3-ylmethyl)-amino]-pyrazolo[1,5-a]pyrimidin-3-yl}-phenol] the figure was 1 to 10 µM; with `CS(=O)(=O)Nc1cccc(-c2cnn3ccc(Nc4ccc(Oc5ccccc5)cc4)nc23)c1` [Example 42, N-{3-[5-(4-Phenoxy-phenylamino)-pyrazolo[1,5-a]pyrimidin-3-yl]-phenyl}-methanesulfonamide], 1 to 10 µM.
Take `COc1ccc(-c2cnn3ccc(Nc4ccc(OC)nc4)nc23)cc1` [Example 425, [3-(4-Methoxy-phenyl)-pyrazolo[1,5-a]pyrimidin-5-yl]-(6-methoxy-pyridin-3-yl)-amine]: the IC50 lay within 1 to 10 µM.
As for `COc1ccc(Nc2ccn3ncc(-c4cccc(C(C)=O)c4)c3n2)cn1` [Example 437, 1-{3-[5-(6-Methoxy-pyridin-3-ylamino)-pyrazolo[1,5-a]pyrimidin-3-yl]-phenyl}-ethanone], the IC50 was in the range of 1 to 10 µM.
Turning to `COc1cc(Nc2ccn3ncc(-c4ccncc4)c3n2)cc(OC)c1OC` [Example 4, (3-Pyridin-4-yl-pyrazolo[1,5-a]pyrimidin-5-yl)-(3,4,5-trimethoxy-phenyl)-amine], the IC50 was 1 to 10 µM.
The result for `O=C(O)/C=C/c1cccc(-c2cnn3ccc(NC4CCC(O)CC4)nc23)c1` (centres unmarked) [Example 157, (E)-3-{3-[5-(4-Hydroxy-cyclohexylamino)-pyrazolo[1,5-a]pyrimidin-3-yl]-phenyl}-acrylic acid] reads 1 to 10 µM; that for `Cn1cc(-c2cnn3ccc(Nc4ccc(O)cc4)nc23)cn1` [Example 194, 4-[3-(1-Methyl-1H-pyrazol-4-yl)-pyrazolo[1,5-a]pyrimidin-5-ylamino]-phenol], 1 to 10 µM.
The result for `Nc1ccc(C(=O)Nc2ccc(Nc3ccn4ncc(-c5cnn(Cc6ccccc6)c5)c4n3)cc2)cc1` [Example 204, 4-Amino-N-{4-[3-(1-benzyl-1H-pyrazol-4-yl)-pyrazolo[1,5-a]pyrimidin-5-ylamino]-phenyl}-benzamide] reads 1 to 10 µM; that for `COc1cc(-c2cnn3ccc(Nc4cccc(Cl)c4)nc23)ccc1O` [Example 314, 4-[5-(3-Chloro-phenylamino)-pyrazolo[1,5-a]pyrimidin-3-yl]-2-methoxy-phenol], 1 to 10 µM.
`c1ccc2c(-c3cnn4ccc(Nc5ccc(N6CCOCC6)cc5)nc34)cccc2c1` [Example 412, (4-Morpholin-4-yl-phenyl)-(3-naphthalen-1-yl-pyrazolo[1,5-a]pyrimidin-5-yl)-amine]: the IC50 was in the range of 1 to 10 µM.
With `COc1ccc(-c2cnn3ccc(NCCO)nc23)cn1` [Example 164, 2-[3-(6-Methoxy-pyridin-3-yl)-pyrazolo[1,5-a]pyrimidin-5-ylamino]-ethanol] the figure was 1 to 10 µM; with `c1ccc(Oc2ccc(Nc3ccn4ncc(-c5ccncc5)c4n3)cc2)cc1` [Example 468, (4-Phenoxy-phenyl)-(3-pyridin-4-yl-pyrazolo[1,5-a]pyrimidin-5-yl)-amine], 1 to 10 µM; with `c1ccc(Nc2ccn3ncc(-c4ccsc4)c3n2)cc1` [Example 280, Phenyl-(3-thiophen-3-yl-pyrazolo[1,5-a]pyrimidin-5-yl)-amine], 1 to 10 µM.
For the compound `COc1cc(-c2cnn3ccc(Nc4ccc(Oc5ccccc5)cc4)nc23)cc(OC)c1OC` [Example 254, (4-Phenoxy-phenyl)-[3-(3,4,5-trimethoxy-phenyl)-pyrazolo[1,5-a]pyrimidin-5-yl]-amine], the IC50 is 1 to 10 µM.
The result for `c1csc(-c2cnn3ccc(NC4CCCNC4)nc23)c1` (centres unmarked) [Example 496, Piperidin-3-yl-(3-thiophen-2-yl-pyrazolo[1,5-a]pyrimidin-5-yl)-amine mono TFA salt] reads 1 to 10 µM.
Take `CC(=O)c1cccc(-c2cnn3ccc(Nc4ccc(O)cc4)nc23)c1` [Example 193, 1-{3-[5-(4-Hydroxy-phenylamino)-pyrazolo[1,5-a]pyrimidin-3-yl]-phenyl}-ethanone]: the IC50 was 1 to 10 µM.
